What was measured:
[1] = tested on: murine leukemia L1210 cells; experiment: Growth inhibition test on cultured murine leukemia L1210 cells; format: cell-based; details: 48 hours, 37° C., Trypan blue viability
Method: 1. Growth inhibition test on cultured murine leukemia L1210 cells
Murine leukemia L1210 cells(1×10^5) were treated with various concentrations of the compounds prepared in the above examples in RPMI 1640 medium supplemented with 10% fetal calf serum, and cultured in a 5% CO2 humidified incubator at 37° C. for 48 hours. Their viability, estimated by staining with 0.17% Trypan blue, was compared with that of control cells cultured in the identical medium without the compounds.

murine leukemia L1210 = experiment: Antitumor activity test on murine leukemia L1210 in vivo; set-up: species or system male BDF1 mice; details: days 1, 5, 9
Method: 2. Antitumor activity test on murine leukemia L1210 in vivo
Murine leukemia L1210 cells were maintained in the peritoneal cavities of 6-week-old male DBA/2 mice by weekly transfer in accordance with the procedure described in cancer chemotherapy Reports, Part 3, 3(2), 7 (1972). Specifically, 1×10^6 leukemia cells were inoculated into the abdominal cavities of 6-week-old male BDF1 mice weighing 21±3 g on day 0. Each treatment group consisted of seven mice. The test compounds were dissolved or suspended in 0.5% carboxymethyl cellulose(CMC)solution (in water) and were administered intraperitoneally on days 1, 5, and 9 relative to the tumor inoculation.
Thirty mice of 6-week-old male BDF1 weighing 21±3 g were used as the control group, which were injected with 0.5% CMC solution only in the same manner as above.
Anti-tumor activities of the compounds were evaluated in terms of the T/C % values calculated from the mean survival time(T) of the compound-treated group over that(C) of the control group. [formula]

[2] = Test for water solubility; format: physicochemical; details: water
Excerpt: 3. Test for water solubility
A standard plot of UV absorbance(220 nm) vs. concentration was made; and employed to determine water-solubility.
The mixture was then passed through a 0.45 micron disposable membrane filter before dilution and UV measurement.

ICR mice = experiment: Acute toxicity test; format: in vivo; set-up: Lethality: unit not given here; details: for Lethality: 10080 min
Method: 7-week-old ICR mice(male: 34±2 g; female: 31±2 g) were fed with solid food and water under the condition of 23±1° C. temperature and 65±5% humidity before the test.
Each treatment group consisted of 6 mice. The test compounds were administered intraperitoneally.
For 7 days after the administration, the appearance and the fate of the tested animals were recorded. The dead animals were subjected to autopsy and their visible pathological changes were observed. Their viscerals were stored in 10% formalin solution.

CC1(C)O[C@H](CN)[C@@H](CN)O1.O=C1C[O][Pt][O]1 [Example 2, (glycolato-O,O')[(4R,5R)-4,5-bis(aminomethyl)-2,2-dimethyl-1,3-dioxolane]platinum(II)]
IC50 (concentration required for 50% inhibition of growth) [1]: 0.15 µg/mL | T/C (%) (murine leukemia L1210; 3.1 mg/kg i.p.): 112% | T/C (%) (murine leukemia L1210; 6.2 mg/kg i.p.): 179% | T/C (%) (murine leukemia L1210; 12.5 mg/kg i.p.): 201% | T/C (%) (murine leukemia L1210; 25 mg/kg i.p.): toxic | T/C (%) (murine leukemia L1210; 50 mg/kg i.p.): toxic | Solubility in water [2]: 17.5 mg/mL | Number of dead mice for 7 days (ICR mice; female, 25.0 mg/kg i.p.): 0/6 | Number of dead mice, 1st day (ICR mice; female, 25.0 mg/kg i.p.): 0/6 | Number of dead mice for 7 days (ICR mice; female, 32.5 mg/kg i.p.): 3/6 | Number of dead mice, 1st day (ICR mice; female, 32.5 mg/kg i.p.): 0/6 | Number of dead mice, 3rd day (ICR mice; female, 32.5 mg/kg i.p.): 2/6 | Number of dead mice, 4th day (ICR mice; female, 32.5 mg/kg i.p.): 1/4 | Lethality (ICR mice; female, 32.5 mg/kg i.p.): 50.0 | Number of dead mice for 7 days (ICR mice; female, 42.3 mg/kg i.p.): 4/6 | Number of dead mice, 1st day (ICR mice; female, 42.3 mg/kg i.p.): 0/6 | Number of dead mice, 3rd day (ICR mice; female, 42.3 mg/kg i.p.): 3/6 | Number of dead mice, 4th day (ICR mice; female, 42.3 mg/kg i.p.): 1/3 | Lethality (ICR mice; female, 42.3 mg/kg i.p.): 66.7 | Number of dead mice for 7 days (ICR mice; female, 55.0 mg/kg i.p.): 6/6 | Number of dead mice, 1st day (ICR mice; female, 55.0 mg/kg i.p.): 0/6 | Number of dead mice, 3rd day (ICR mice; female, 55.0 mg/kg i.p.): 4/6 | Number of dead mice, 4th day (ICR mice; female, 55.0 mg/kg i.p.): 1/2 | Number of dead mice, 5th day (ICR mice; female, 55.0 mg/kg i.p.): 1/1 | Lethality (ICR mice; female, 55.0 mg/kg i.p.): 100.0 | Number of dead mice for 7 days (ICR mice; female, 71.4 mg/kg i.p.): 6/6 | Number of dead mice, 1st day (ICR mice; female, 71.4 mg/kg i.p.): 0/6 | Number of dead mice, 3rd day (ICR mice; female, 71.4 mg/kg i.p.): 4/6 | Number of dead mice, 4th day (ICR mice; female, 71.4 mg/kg i.p.): 2/2 | Lethality (ICR mice; female, 71.4 mg/kg i.p.): 100.0 | Number of dead mice for 7 days (ICR mice; male, 25.0 mg/kg i.p.): 0/6 | Number of dead mice, 1st day (ICR mice; male, 25.0 mg/kg i.p.): 0/6 | Number of dead mice for 7 days (ICR mice; male, 32.5 mg/kg i.p.): 3/6 | Number of dead mice, 1st day (ICR mice; male, 32.5 mg/kg i.p.): 0/6 | Number of dead mice, 3rd day (ICR mice; male, 32.5 mg/kg i.p.): 1/6 | Number of dead mice, 4th day (ICR mice; male, 32.5 mg/kg i.p.): 1/5 | Number of dead mice, 5th day (ICR mice; male, 32.5 mg/kg i.p.): 1/4 | Lethality (ICR mice; male, 32.5 mg/kg i.p.): 50.0 | Number of dead mice for 7 days (ICR mice; male, 42.3 mg/kg i.p.): 5/6 | Number of dead mice, 1st day (ICR mice; male, 42.3 mg/kg i.p.): 0/6 | Number of dead mice, 3rd day (ICR mice; male, 42.3 mg/kg i.p.): 3/6 | Number of dead mice, 4th day (ICR mice; male, 42.3 mg/kg i.p.): 2/3 | Lethality (ICR mice; male, 42.3 mg/kg i.p.): 83.3 | Number of dead mice for 7 days (ICR mice; male, 55.0 mg/kg i.p.): 6/6 | Number of dead mice, 1st day (ICR mice; male, 55.0 mg/kg i.p.): 0/6 | Number of dead mice, 3rd day (ICR mice; male, 55.0 mg/kg i.p.): 4/6 | Number of dead mice, 4th day (ICR mice; male, 55.0 mg/kg i.p.): 1/2 | Number of dead mice, 5th day (ICR mice; male, 55.0 mg/kg i.p.): 1/1 | Lethality (ICR mice; male, 55.0 mg/kg i.p.): 100.0 | Number of dead mice for 7 days (ICR mice; male, 71.4 mg/kg i.p.): 6/6 | Number of dead mice, 1st day (ICR mice; male, 71.4 mg/kg i.p.): 0/6 | Number of dead mice, 3rd day (ICR mice; male, 71.4 mg/kg i.p.): 4/6 | Number of dead mice, 4th day (ICR mice; male, 71.4 mg/kg i.p.): 2/2 | Lethality (ICR mice; male, 71.4 mg/kg i.p.): 100.0
